According to patent publication US20220133711A1, “CAMPTOTHECIN DERIVATIVES” (priority 2019, published 2022):
Like-named read-outs stand apart in the source and are kept apart here.

How the values were obtained:
Assay type in all cases: cell-based
[1] = system: Namalwa; experiment: In vitro cytotoxicity assay (WST-8 cell viability, 5 days); settings: Homo sapiens, read-out: In vitro cytotoxicity (IC50) Namalwa
Experimental: (§1) Cytotoxic potencies were assessed in flat-bottomed 96 well plates (Costar) using a water-soluble tetrazonium salt (WST-8) based cell viability assay (Dojindo, Molecular Technologies, Inc.) as previously described (Kovtun Y V, et al. Antibody-maytansinoid conjugates designed to bypass multidrug resistance. Cancer Res 2010; 70(6):2528-37). Briefly, human tumor cells (1,000-5,000 cells/well, depending on the cell line), in the appropriate culture medium were incubated, with conjugates in the presence or absence of an excess of the corresponding unconjugated antibodies, or with the metabolites for 5 days, at 37° C., 6% CO2. Cell viability was determined from background-corrected WST-8 absorbance.

[2] = system: HSC-2; experiment: as above; settings: Homo sapiens
Experimental: as §1

[3] = system: MDA-MB-468; experiment: as above; settings: Homo sapiens, MDA-MB-468, read-out: In vitro cytotoxicity (IC50) MDA-MB-468
Experimental: as §1

[4] = system: SUDHL-1; experiment: as above; settings: Homo sapiens, SU-DHL-1, read-out: In vitro cytotoxicity (IC50) SUDHL-1
Experimental: as §1

[5] = system: N-Luc (Namalwa cells stably transfected with the Luciferase gene); experiment: as above; settings: Homo sapiens
Experimental: as §1

[6] = system: KB; experiment: cells; settings: Homo sapiens, read-out: In vitro cytotoxicity (IC50) KB
Experimental: as §1

[7] = HSC-2, read-out: In vitro cytotoxicity (IC50) HSC-2, non-conjugated compounds, Table 7A
[8] = read-out: In vitro cytotoxicity (IC50) N-Luc, non-conjugated compounds, Table 7A
[9] = read-out: In vitro cytotoxicity (IC50) N-Luc, non-conjugated compounds, Table 7B
[10] = HSC-2, read-out: In vitro cytotoxicity (IC50) HSC-2
[11] = HSC-2, read-out: In vitro cytotoxicity (IC50) HSC-2, non-conjugated compounds, Table 7B

CC[C@@]1(O)C(=O)OCc2c1cc1n(c2=O)Cc2c-1nc1cc(F)c(SC)cc1c2CCl [Compound 4b]
IC50 [1]: 1 nM | IC50 [2, 7]: 3 nM

CC[C@@]1(O)C(=O)OCc2c1cc1n(c2=O)Cc2c-1nc1cc(F)c(C)cc1c2CCl [Compound 4a]
IC50 [1]: 3 nM | IC50 [2, 7]: 4 nM

CC[C@@]1(O)C(=O)OCc2c1cc1n(c2=O)Cc2c-1nc1cc(F)c(C)cc1c2CCCCSC [Compound 33a]
IC50 [1]: 0.7 nM | IC50 [2, 7]: 2 nM

CC[C@@]1(O)C(=O)OCc2c1cc1n(c2=O)Cc2c-1nc1cc(F)c(C)cc1c2CN(Cc1ccccc1)C(=O)CO [Compound 7c]
IC50 [3]: 1 nM | IC50 [4]: 0.2 nM | IC50 [5, 8]: 0.7 nM | IC50 [2, 7]: 1 nM

CC[C@@]1(O)C(=O)OCc2c1cc1n(c2=O)Cc2c-1nc1cc(F)c(SC)cc1c2CNC(=O)CO [Compound 7b]
IC50 [5, 8]: 2 nM | IC50 [2, 7]: 7 nM

CC[C@@]1(O)C(=O)OCc2c1cc1n(c2=O)Cc2c-1nc1cc(F)c(C)cc1c2C[S+]([O-])CCO (some centres unmarked) [Compound 34a]
IC50 [3]: 7 nM | IC50 [2, 7]: 9 nM | IC50 [6]: 7 nM

CC[C@@]1(O)C(=O)OCc2c1cc1n(c2=O)Cc2c-1nc1cc(F)c(C)cc1c2CS(=O)(=O)CCO [Compound 34b]
IC50 [3]: 3 nM | IC50 [2, 7]: 3 nM | IC50 [6]: 2 nM

CC[C@@]1(O)C(=O)OCc2c1cc1n(c2=O)Cc2c-1nc1cc(F)c(C)cc1c2CNC(=O)CO [Compound 7a]
IC50 [3]: 3 nM | IC50 [4]: 0.5 nM | IC50 [5, 8]: 1 nM | IC50 [5, 9]: 0.9 nM | IC50 [1]: 0.9 nM | IC50 [2, 10]: 2 nM | IC50 [2, 7]: 4 nM

CC[C@@]1(O)C(=O)OCc2c1cc1n(c2=O)Cc2c-1nc1cc(F)c(C)cc1c2CNC(=O)CCCCCSC [Compound 35a]
IC50 [4]: 0.6 nM | IC50 [2, 7]: 7 nM

CC[C@@]1(O)C(=O)OCc2c1cc1n(c2=O)Cc2c-1nc1cc(F)c(C)cc1c2CSCCSC [Compound 8p]
IC50 [5, 9]: 0.2 nM | IC50 [2, 11]: 0.6 nM

CC[C@@]1(O)C(=O)OCc2c1cc1n(c2=O)Cc2c-1nc1cc(F)c(C)cc1c2CCCCO [Compound 8a]
IC50 [3]: 2 nM | IC50 [5, 8]: 0.9 nM | IC50 [5, 9]: 0.2 nM | IC50 [1]: 0.2 nM | IC50 [2, 7]: 0.6 nM | IC50 [2, 11]: 0.5 nM | IC50 [6]: 0.6 nM

CC[C@@]1(O)C(=O)OCc2c1cc1n(c2=O)Cc2c-1nc1cc(F)c(C)cc1c2CSCCO [Compound 8c]
IC50 [5, 9]: 0.2 nM | IC50 [2, 10]: 0.4 nM
